Assay results: ChEMBL document CHEMBL5728757, “Cyano substituted heteroarylpyrimidinone derivative, preparation method and use thereof” (2021)

Target: Acetyl-CoA carboxylase 1 (Homo sapiens, UniProt Q13085)
Assay: etermination of IC50 of Inhibition of Enzymatic Activity of ACC1 and ACC2 by the Compound of the Present Disclosure: The degree of inhibition of the enzymatic activity of recombinant human ACC1, ACC2 proteins under in-vitro conditions by the preferred compounds of the present disclosure is determined by the following method.The principle of the method was based on the reaction of ACC protein-catalyzed acetyl-CoA to form malonyl-CoA. ATP was consumed during this reaction and ADP was produced. The produced ADP was reconverted into ATP by using ADP-Glo™ Kinase Kit from Promega. This part of ATP reacted with the luciferase-fluorescence in the kit, and generated chemiluminescent signals. Thus, by measuring the intensity of chemiluminescent signal, the amount of ADP produced in the catalytic reaction was reflected, thereby indirectly determining the enzymatic activity of ACC protein and the effect of the tested compound on the enzymatic activity. […]

For `CCOc1ccc(F)cc1[C@H](Cn1c(=O)n(C(C)(C)C(N)=O)c(=O)c2c(C)c(C#N)sc21)OC1CCOCC1`, the IC50 was 13.1 nM.
